≈ marks a conversion by molar mass, not a printed value.
solubility (25 °C)	solubility (20 °C)	SMILES	further results
0.527 mM (≈ 38 µg/mL)	–	CCCCC	–
0.00172 mM (≈ 0.22 µg/mL)	–	CCCCCCCCC	–
1810 mM (≈ 156000 µg/mL)	–	CC1CCCO1 (stereo not drawn)	–
–	30 mM (≈ 3000 µg/mL)	C=COCCCC	–
–	15.4 mM (≈ 2100 µg/mL)	COC(=O)c1ccccc1	–
–	13.2 mM (≈ 1710 µg/mL)	CCCCCOC(C)=O	–
–	–	CCOC(=O)/C=C\C(=O)OCC	solubility (30 °C): 81.3 mM (≈ 14000 µg/mL)
555 mM (≈ 80000 µg/mL)	–	COC(=O)/C=C\C(=O)OC	–
0.172 mM (≈ 14.8 µg/mL)	–	CCCC(C)C	–
–	47.3 mM (≈ 5500 µg/mL)	CCCC(=O)OCC	–
–	–	Cc1ccc(Cl)c(Cl)c1	solubility (30 °C): 0.161 mM (≈ 26 µg/mL)
–	0.127 mM (≈ 40 µg/mL)	CCCCOC(=O)CCCCCCCCC(=O)OCCCC	–
–	1.79 mM (≈ 284 µg/mL)	CCCCCCCCC(=O)O	–
0.222 mM (≈ 19.6 µg/mL)	–	C[Si](C)(C)C	–
266 mM (≈ 58000 µg/mL)	–	CC(=O)OCC(COC(C)=O)OC(C)=O	–
–	1030 mM (≈ 89000 µg/mL)	C=C(C)C(=O)O	–
0.00225 mM (≈ 0.325 µg/mL)	–	CC[Si](CC)(CC)CC	–
–	6.62 mM (≈ 597 µg/mL)	CCCCS	–
0.862 mM (≈ 90 µg/mL)	–	FC(F)(F)Cl	–
161 mM (≈ 16400 µg/mL)	–	CC(C)CC(C)O (stereo not drawn)	–
–	18.5 mM (≈ 2410 µg/mL)	CCOC(=O)CC(C)C	–
2.3 mM (≈ 300 µg/mL)	–	CCCCOCCCC	–
48 mM (≈ 4900 µg/mL)	–	CCCOCCC	–
–	19.3 mM (≈ 2500 µg/mL)	CCCCC(CC)CN (stereo not drawn)	–
–	0.673 mM (≈ 100 µg/mL)	CCCCC(CC)CCl (stereo not drawn)	–
2.19 mM (≈ 500 µg/mL)	–	CCCCOC(=O)/C=C\C(=O)OCCCC	–
0.761 mM (≈ 130 µg/mL)	–	FC(F)(Cl)C(F)(F)Cl	–
1.26 mM (≈ 200 µg/mL)	–	CC(C)CCOCCC(C)C	–
–	9.01 mM (≈ 1300 µg/mL)	CC(=O)OC(C)CC(C)C (stereo not drawn)	–
0.676 mM (≈ 48.8 µg/mL)	–	CCC(C)C	–

SMILES	solubility (25 °C)	solubility (20 °C)	further results
CCC[N+](=O)[O-]	168 mM (≈ 15000 µg/mL)	–	–
CCCCCl	11.9 mM (≈ 1100 µg/mL)	–	–
FC(Cl)(Cl)C(F)(Cl)Cl	0.617 mM (≈ 126 µg/mL)	–	–
C=CC(=O)OC	574 mM (≈ 49400 µg/mL)	–	–
CCOCC	815 mM (≈ 60400 µg/mL)	–	–
CCCCCC(C)=O	37.7 mM (≈ 4300 µg/mL)	–	–
C=COC(C)=O	–	232 mM (≈ 20000 µg/mL)	–
N#Cc1ccccc1	19.4 mM (≈ 2000 µg/mL)	–	–
